Measured values from US6525001B1, “Substituted pyrimidine and pyridine herbicides” (Mid-American Commercialization Corporation, priority 1997, dated 2003).

Assays:
Assay type in all cases: in vivo
[1] = test system: blackgrass (Alopecurus myosuroides); experiment: Test B pre-/postemergence; set-up: key: 0 is no effect; 10 is complete control
Procedure, shortened: (§1)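 Seeds were planted and sprayed preemergence, while plants at 2 to 18 cm (1- to 4-leaf stage) were sprayed postemergence at the same time, with test chemical in a non-phytotoxic solvent mixture containing surfactant. After twelve to sixteen days in a greenhouse, injury was rated visually against untreated controls on a 0–10 scale.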

[2] = test system: cocklebur (Xanthium strumarium); experiment: Test B pre-/postemergence; set-up: key: 0 is no effect; 10 is complete control
Procedure, shortened: as §1

[3] = test system: corn (Zea mays); experiment: Test B pre-/postemergence; set-up: key: 0 is no effect; 10 is complete control
Procedure, shortened: as §1

[4] = test system: crabgrass (Digitaria sanguinalis); experiment: Test B pre-/postemergence; set-up: key: 0 is no effect; 10 is complete control
Procedure, shortened: as §1

[5] = test system: pigweed (Amaranthus retroflexus); experiment: Test B pre-/postemergence; set-up: key: 0 is no effect; 10 is complete control
Procedure, shortened: as §1

[6] = test system: purple nutsedge (Cyperus rotundus); experiment: Test B pre-/postemergence; set-up: key: 0 is no effect; 10 is complete control
Procedure, shortened: as §1

[7] = test system: rape (Brassica napus); experiment: Test B pre-/postemergence; set-up: key: 0 is no effect; 10 is complete control
Procedure, shortened: as §1

[8] = test system: soybean (Glycine max); experiment: Test B pre-/postemergence; set-up: key: 0 is no effect; 10 is complete control
Procedure, shortened: as §1

[9] = test system: sugar beet (Beta vulgaris); experiment: Test B pre-/postemergence; set-up: key: 0 is no effect; 10 is complete control
Procedure, shortened: as §1

[10] = test system: velvetleaf (Abutilon theophrasti); experiment: Test B pre-/postemergence; set-up: key: 0 is no effect; 10 is complete control
Procedure, shortened: as §1

[11] = test system: wheat (Triticum aestivum); experiment: Test B pre-/postemergence; set-up: key: 0 is no effect; 10 is complete control
Procedure, shortened: as §1

[12] = test system: bamyardgrass (Echinochloa crus-galli); experiment: Test B flood test
Procedure, shortened: (§2)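 Plants were grown to the 2-leaf stage before treatment with test chemical, then held in a greenhouse for twelve to sixteen days. Injury was visually rated against untreated controls on a 0–10 scale, where 0 is no effect and 10 is complete control.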

[13] = test system: duck salad (Heteranthera limosa); experiment: Test B flood test
Procedure, shortened: as §2

[14] = test system: rice (Oryza sativa); experiment: Test B flood test
Procedure, shortened: as §2

[15] = test system: smallflower flatsedge (Cyperus difformis); experiment: Test B flood test
Procedure, shortened: as §2

[16] = Rate 62 g/ha, Postemergence (flood test)
[17] = Rate 125 g/ha, Postemergence, flood test
[18] = Rate 250 g/ha, Postemergence (flood test species)
[19] = Rate 500 g/ha, Postemergence (flood test species)

Cc1cnc(-c2ccc(C(F)(F)F)cc2)nc1Cn1ccc(C(F)(F)F)n1 [compound 9]
Plant response rating, Blackgrass ([1]; Rate 62 g/ha, Postemergence): 3
Blackgrass plant response rating ([1]; Rate 62 g/ha, Preemergence): 4
Plant response rating, Blackgrass ([1]; Rate 125 g/ha, Postemergence): 8
Blackgrass plant response rating ([1]; Rate 125 g/ha, Preemergence): 9
Plant response rating, Blackgrass ([1]; Rate 250 g/ha, Postemergence): 8
Plant response rating, Blackgrass ([1]; Rate 250 g/ha, Preemergence): 10
Plant response rating, Blackgrass ([1]; Rate 500 g/ha, Postemergence): 9
Plant response rating, Blackgrass ([1]; Rate 500 g/ha, Preemergence): 10
Plant response rating, Cocklebur ([2]; Rate 62 g/ha, Postemergence): 9
Cocklebur plant response rating ([2]; Rate 62 g/ha, Preemergence): 0
Plant response rating, Cocklebur ([2]; Rate 125 g/ha, Postemergence): 9
Cocklebur plant response rating ([2]; Rate 125 g/ha, Preemergence): 2
Plant response rating, Cocklebur ([2]; Rate 250 g/ha, Postemergence): 10
Plant response rating, Cocklebur ([2]; Rate 250 g/ha, Preemergence): 9
Plant response rating, Cocklebur ([2]; Rate 500 g/ha, Postemergence): 9
Plant response rating, Cocklebur ([2]; Rate 500 g/ha, Preemergence): 9
Plant response rating, Corn ([3]; Rate 62 g/ha, Postemergence): 3
Corn plant response rating ([3]; Rate 62 g/ha, Preemergence): 0
Plant response rating, Corn ([3]; Rate 125 g/ha, Postemergence): 4
Corn plant response rating ([3]; Rate 125 g/ha, Preemergence): 1
Plant response rating, Corn ([3]; Rate 250 g/ha, Postemergence): 5
Plant response rating, Corn ([3]; Rate 250 g/ha, Preemergence): 3
Plant response rating, Corn ([3]; Rate 500 g/ha, Postemergence): 5
Plant response rating, Corn ([3]; Rate 500 g/ha, Preemergence): 4
Plant response rating, Crabgrass ([4]; Rate 62 g/ha, Postemergence): 9
Crabgrass plant response rating ([4]; Rate 62 g/ha, Preemergence): 9
Plant response rating, Crabgrass ([4]; Rate 125 g/ha, Postemergence): 9
Crabgrass plant response rating ([4]; Rate 125 g/ha, Preemergence): 10
Plant response rating, Crabgrass ([4]; Rate 250 g/ha, Postemergence): 10
Plant response rating, Crabgrass ([4]; Rate 250 g/ha, Preemergence): 10
Plant response rating, Crabgrass ([4]; Rate 500 g/ha, Postemergence): 10
Plant response rating, Crabgrass ([4]; Rate 500 g/ha, Preemergence): 10
Plant response rating, Redroot pigweed ([5]; Rate 62 g/ha, Postemergence): 10
Redroot pigweed plant response rating ([5]; Rate 62 g/ha, Preemergence): 9
Plant response rating, Redroot pigweed ([5]; Rate 125 g/ha, Postemergence): 10
Redroot pigweed plant response rating ([5]; Rate 125 g/ha, Preemergence): 10
Plant response rating, Redroot pigweed ([5]; Rate 250 g/ha, Postemergence): 10
Plant response rating, Redroot pigweed ([5]; Rate 250 g/ha, Preemergence): 10
Plant response rating, Redroot pigweed ([5]; Rate 500 g/ha, Postemergence): 10
Plant response rating, Redroot pigweed ([5]; Rate 500 g/ha, Preemergence): 10
Plant response rating, Nutsedge ([6]; Rate 62 g/ha, Postemergence): 0
Nutsedge plant response rating ([6]; Rate 62 g/ha, Preemergence): 0
Plant response rating, Nutsedge ([6]; Rate 125 g/ha, Postemergence): 1
Nutsedge plant response rating ([6]; Rate 125 g/ha, Preemergence): 0
Plant response rating, Nutsedge ([6]; Rate 250 g/ha, Postemergence): 3
Plant response rating, Nutsedge ([6]; Rate 250 g/ha, Preemergence): 0
Plant response rating, Nutsedge ([6]; Rate 500 g/ha, Postemergence): 3
Plant response rating, Nutsedge ([6]; Rate 500 g/ha, Preemergence): 0
Plant response rating, Rape ([7]; Rate 62 g/ha, Postemergence): 9
Rape plant response rating ([7]; Rate 62 g/ha, Preemergence): 9
Plant response rating, Rape ([7]; Rate 125 g/ha, Postemergence): 10
Rape plant response rating ([7]; Rate 125 g/ha, Preemergence): 9
Plant response rating, Rape ([7]; Rate 250 g/ha, Postemergence): 10
Plant response rating, Rape ([7]; Rate 250 g/ha, Preemergence): 10
Plant response rating, Rape ([7]; Rate 500 g/ha, Postemergence): 10
Plant response rating, Rape ([7]; Rate 500 g/ha, Preemergence): 10
Plant response rating, Soybean ([8]; Rate 62 g/ha, Postemergence): 8
Soybean plant response rating ([8]; Rate 62 g/ha, Preemergence): 1
Plant response rating, Soybean ([8]; Rate 125 g/ha, Postemergence): 9
Soybean plant response rating ([8]; Rate 125 g/ha, Preemergence): 1
Plant response rating, Soybean ([8]; Rate 250 g/ha, Postemergence): 10
Plant response rating, Soybean ([8]; Rate 250 g/ha, Preemergence): 2
Plant response rating, Soybean ([8]; Rate 500 g/ha, Postemergence): 9
Plant response rating, Soybean ([8]; Rate 500 g/ha, Preemergence): 4
Plant response rating, Sugarbeets ([9]; Rate 62 g/ha, Postemergence): 10
Sugarbeets plant response rating ([9]; Rate 62 g/ha, Preemergence): 9
Plant response rating, Sugarbeets ([9]; Rate 125 g/ha, Postemergence): 10
Sugarbeets plant response rating ([9]; Rate 125 g/ha, Preemergence): 10
Plant response rating, Sugarbeets ([9]; Rate 250 g/ha, Postemergence): 10
Plant response rating, Sugarbeets ([9]; Rate 250 g/ha, Preemergence): 10
Plant response rating, Sugarbeets ([9]; Rate 500 g/ha, Postemergence): 9
Plant response rating, Sugarbeets ([9]; Rate 500 g/ha, Preemergence): 10
Plant response rating, Velvetleaf ([10]; Rate 62 g/ha, Postemergence): 10
Velvetleaf plant response rating ([10]; Rate 62 g/ha, Preemergence): 7
Plant response rating, Velvetleaf ([10]; Rate 125 g/ha, Postemergence): 10
Velvetleaf plant response rating ([10]; Rate 125 g/ha, Preemergence): 8
Plant response rating, Velvetleaf ([10]; Rate 250 g/ha, Postemergence): 10
Plant response rating, Velvetleaf ([10]; Rate 250 g/ha, Preemergence): 9
Plant response rating, Velvetleaf ([10]; Rate 500 g/ha, Postemergence): 9
Plant response rating, Velvetleaf ([10]; Rate 500 g/ha, Preemergence): 9
Plant response rating, Wheat ([11]; Rate 62 g/ha, Postemergence): 3
Wheat plant response rating ([11]; Rate 62 g/ha, Preemergence): 1
Plant response rating, Wheat ([11]; Rate 125 g/ha, Postemergence): 3
Wheat plant response rating ([11]; Rate 125 g/ha, Preemergence): 2
Plant response rating, Wheat ([11]; Rate 250 g/ha, Postemergence): 4
Plant response rating, Wheat ([11]; Rate 250 g/ha, Preemergence): 5
Plant response rating, Wheat ([11]; Rate 500 g/ha, Postemergence): 6
Plant response rating, Wheat ([11]; Rate 500 g/ha, Preemergence): 6
Plant response rating, Barnyardgrass [12, 16]: 5
Plant response rating, Barnyardgrass [12, 17]: 5
Plant response rating, Barnyardgrass [12, 18]: 7
Plant response rating, Barnyardgrass [12, 19]: 8
Plant response rating, Ducksalad [13, 16]: 4
Plant response rating, Ducksalad [13, 17]: 6
Plant response rating, Ducksalad [13, 18]: 7
Plant response rating, Ducksalad [13, 19]: 6
Plant response rating, Rice [14, 16]: 5
Plant response rating, Rice [14, 17]: 6
Plant response rating, Rice [14, 18]: 7
Plant response rating, Rice [14, 19]: 8
Plant response rating, S. Flatsedge [15, 16]: 8
Plant response rating, S. Flatsedge [15, 17]: 9
Plant response rating, S. Flatsedge [15, 18]: 9
Plant response rating, S. Flatsedge [15, 19]: 9
